Results as given in the NIST ThermoML archive (doi:10.1016/j.tca.2013.05.017).

Settings: 101.33 kPa, Crystal 2, Small (less than 1 g) adiabatic calorimetry

O=S(=O)([O-])[O-].[Sr+2] [sulfuric acid, strontium salt (1:1)]
Settings | molar entropy [J/K/mol]
5 K | 0.01272
10 K | 0.1188
15 K | 0.4903
20 K | 1.25
25 K | 2.413
30 K | 3.947
35 K | 5.8
40 K | 7.917
45 K | 10.25
50 K | 12.75
55 K | 15.38
60 K | 18.11
65 K | 20.88
70 K | 23.69
75 K | 26.51
80 K | 29.33
85 K | 32.13
90 K | 34.9
95 K | 37.65
100 K | 40.36
110 K | 45.67
120 K | 50.82
130 K | 55.82
140 K | 60.67
150 K | 65.39
160 K | 69.99
170 K | 74.46
180 K | 78.81
190 K | 83.06
200 K | 87.2
210 K | 91.24
220 K | 95.18
230 K | 99.04
240 K | 102.82
250 K | 106.52
260 K | 110.15
270 K | 113.73
273.15 K | 114.84
280 K | 117.23
290 K | 120.68
298.15 K | 123.44
300 K | 124.06
310 K | 127.38
320 K | 130.64
